Measured values published in ChEMBL document CHEMBL1201862, “PubChem BioAssay data set” (2004).
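How tested: cells in 96-well plates exposed to compound for 48 hours at five concentrations. At the GI50, growth is halved.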 Active and inactive are the calls of the source. No stated cut-off is given here; in the data, active = GI50 up to about 1.1 µM and inactive = higher.

Experiments:
Test in all cases: growth of human tumour cells (NCI), 48 h
NCI/ADR-RES = test system: NCI/ADR-RES
NCI-H460 = test system: NCI-H460
HCT-116 = test system: HCT-116
RXF 393 = test system: RXF 393
Malme-3M = test system: Malme-3M
SW-620 = test system: SW-620
T47D = test system: T47D
MOLT-4 = test system: MOLT-4
UACC-257 = test system: UACC-257
Hs-578T = test system: Hs-578T
SR = test system: SR
CCRF-CEM = test system: CCRF-CEM
OVCAR-8 = test system: OVCAR-8
KM12 = test system: KM12
IGROV-1 = test system: IGROV-1
K562 = test system: K562
MDA-MB-435 = test system: MDA-MB-435
DU-145 = test system: DU-145
BT-549 = test system: BT-549
LOX IMVI = test system: LOX IMVI
SK-MEL-2 = test system: SK-MEL-2
SN12C = test system: SN12C
M14 = test system: M14
A549 = test system: A549
PC-3 = test system: PC-3
SF-295 = test system: SF-295
EKVX = test system: EKVX
NCI-H23 = test system: NCI-H23
HT-29 = test system: HT-29
SF-268 = test system: SF-268
NCI-H522 = test system: NCI-H522
HCC 2998 = test system: HCC 2998
A498 = test system: A498
786-0 = test system: 786-0
U-251 = test system: U-251
UO-31 = test system: UO-31
OVCAR-4 = test system: OVCAR-4
TK-10 = test system: TK-10
UACC-62 = test system: UACC-62
NCI-H226 = test system: NCI-H226
HOP-92 = test system: HOP-92
OVCAR-5 = test system: OVCAR-5
ACHN = test system: ACHN
CAKI-1 = test system: CAKI-1
HOP-62 = test system: HOP-62
OVCAR-3 = test system: OVCAR-3
SK-MEL-28 = test system: SK-MEL-28
SK-MEL-5 = test system: SK-MEL-5
SNB-75 = test system: SNB-75
MDA-MB-231 = test system: MDA-MB-231
HCT-15 = test system: HCT-15
SNB-19 = test system: SNB-19
MDA-N = test system: MDA-N
COLO 205 = test system: COLO 205
SK-OV-3 = test system: SK-OV-3
MCF7 = test system: MCF7
SF-539 = test system: SF-539
RPMI-8226 = test system: RPMI-8226
HL-60 = test system: HL-60

## NC(CCc1ccccc1)(C(=O)O)c1ccccc1 (configuration not stated)
NCI/ADR-RES
  GI50: > 100 µM (inactive)
NCI-H460
  GI50: > 100 µM (inactive)
HCT-116
  GI50: > 100 µM (inactive)
RXF 393
  GI50: > 100 µM (inactive)
Malme-3M
  GI50: > 100 µM (inactive)
SW-620
  GI50: > 100 µM (inactive)
T47D
  GI50: > 100 µM (inactive)
MOLT-4
  GI50: > 100 µM (inactive)
UACC-257
  GI50: > 100 µM (inactive)
Hs-578T
  GI50: > 100 µM (inactive)
SR
  GI50: > 100 µM (inactive)
CCRF-CEM
  GI50: > 100 µM (inactive)
OVCAR-8
  GI50: > 100 µM (inactive)
KM12
  GI50: > 100 µM (inactive)
IGROV-1
  GI50: > 100 µM (inactive)
K562
  GI50: > 100 µM (inactive)
MDA-MB-435
  GI50: > 100 µM (inactive)
DU-145
  GI50: > 100 µM (inactive)
BT-549
  GI50: > 100 µM (inactive)
LOX IMVI
  GI50: > 100 µM (inactive)
SK-MEL-2
  GI50: > 100 µM (inactive)
SN12C
  GI50: > 100 µM (inactive)
M14
  GI50: > 100 µM (inactive)
A549
  GI50: > 100 µM (inactive)
PC-3
  GI50: > 100 µM (inactive)
SF-295
  GI50: > 100 µM (inactive)
EKVX
  GI50: > 100 µM (inactive)
NCI-H23
  GI50: > 100 µM (inactive)
HT-29
  GI50: > 100 µM (inactive)
SF-268
  GI50: > 100 µM (inactive)
NCI-H522
  GI50: > 100 µM (inactive)
HCC 2998
  GI50: > 100 µM (inactive)
A498
  GI50: > 100 µM (inactive)
786-0
  GI50: > 100 µM (inactive)
U-251
  GI50: > 100 µM (inactive)
UO-31
  GI50: > 100 µM (inactive)
OVCAR-4
  GI50: > 100 µM (inactive)
TK-10
  GI50: > 100 µM (inactive)
UACC-62
  GI50: > 100 µM (inactive)
NCI-H226
  GI50: > 100 µM (inactive)
HOP-92
  GI50: > 100 µM (inactive)
OVCAR-5
  GI50: > 100 µM (inactive)
ACHN
  GI50: > 100 µM (inactive)
CAKI-1
  GI50: > 100 µM (inactive)
HOP-62
  GI50: > 100 µM (inactive)
OVCAR-3
  GI50: > 100 µM (inactive)
SK-MEL-28
  GI50: > 100 µM (inactive)
SK-MEL-5
  GI50: > 100 µM (inactive)
SNB-75
  GI50: > 100 µM (inactive)
MDA-MB-231
  GI50: > 100 µM (inactive)
HCT-15
  GI50: > 100 µM
SNB-19
  GI50: > 100 µM (inactive)
MDA-N
  GI50: > 100 µM (inactive)

## CC(=O)NC1C(OCc2ccccc2)OC(CO)C(O)C1OCC(=O)N1CCCC1C(=O)N[C@@H](CCC(=O)NCCCCNc1c2ccccc2nc2cccc([N+](=O)[O-])c12)C(N)=O (some centres not stated)
NCI/ADR-RES
  GI50: > 100 µM (inactive)
NCI-H460
  GI50: 21 µM (inactive)
HCT-116
  GI50: 22.9 µM (inactive)
Malme-3M
  GI50: 33.3 µM (inactive)
SW-620
  GI50: 11.5 µM (inactive)
T47D
  GI50: 27.4 µM (inactive)
MOLT-4
  GI50: 32.5 µM (inactive)
Hs-578T
  GI50: 21.1 µM (inactive)
SR
  GI50: 20.1 µM (inactive)
COLO 205
  GI50: 18.6 µM (inactive)
OVCAR-8
  GI50: 31 µM (inactive)
KM12
  GI50: 31.3 µM (inactive)
IGROV-1
  GI50: 14.8 µM (inactive)
K562
  GI50: 26.4 µM (inactive)
MDA-MB-435
  GI50: 18 µM (inactive)
DU-145
  GI50: 31.8 µM (inactive)
BT-549
  GI50: 17.9 µM (inactive)
SK-OV-3
  GI50: 99.1 µM (inactive)
SK-MEL-2
  GI50: 15.4 µM (inactive)
SN12C
  GI50: 23.7 µM (inactive)
M14
  GI50: 16 µM (inactive)
A549
  GI50: 16 µM (inactive)
PC-3
  GI50: 18.7 µM (inactive)
SF-295
  GI50: 53.8 µM (inactive)
EKVX
  GI50: 43.3 µM (inactive)
NCI-H23
  GI50: 15.7 µM (inactive)
HT-29
  GI50: 16.7 µM (inactive)
SF-268
  GI50: 31.6 µM (inactive)
HCC 2998
  GI50: 16.1 µM (inactive)
A498
  GI50: 35.7 µM (inactive)
786-0
  GI50: 46.1 µM (inactive)
MCF7
  GI50: 9.1 µM (inactive)
U-251
  GI50: 18.9 µM (inactive)
UO-31
  GI50: 45.2 µM (inactive)
OVCAR-4
  GI50: 40.7 µM (inactive)
TK-10
  GI50: 73.8 µM (inactive)
NCI-H226
  GI50: 74 µM (inactive)
HOP-92
  GI50: 9.33 µM (inactive)
OVCAR-5
  GI50: 25.8 µM (inactive)
SF-539
  GI50: 77.4 µM (inactive)
ACHN
  GI50: 26.6 µM (inactive)
CAKI-1
  GI50: > 100 µM (inactive)
HOP-62
  GI50: 37.9 µM (inactive)
OVCAR-3
  GI50: 21.6 µM (inactive)
SK-MEL-28
  GI50: 81.8 µM (inactive)
SNB-75
  GI50: 21.4 µM (inactive)
HCT-15
  GI50: 42.8 µM
SNB-19
  GI50: 17.7 µM (inactive)
RPMI-8226
  GI50: 2.64 µM (inactive)
MDA-N
  GI50: 14.8 µM (inactive)

## O=[N+]([O-])c1ccc(N/N=C2\C=CCCC2)c([N+](=O)[O-])c1
NCI/ADR-RES
  GI50: > 100 µM (inactive)
NCI-H460
  GI50: > 100 µM (inactive)
HCT-116
  GI50: > 100 µM (inactive)
Malme-3M
  GI50: > 100 µM (inactive)
SW-620
  GI50: > 100 µM (inactive)
T47D
  GI50: > 100 µM (inactive)
MOLT-4
  GI50: > 10 µM (inactive)
UACC-257
  GI50: > 100 µM (inactive)
Hs-578T
  GI50: 27.3 µM (inactive)
SR
  GI50: > 100 µM (inactive)
CCRF-CEM
  GI50: > 100 µM (inactive)
COLO 205
  GI50: > 100 µM (inactive)
OVCAR-8
  GI50: > 100 µM (inactive)
KM12
  GI50: > 100 µM (inactive)
IGROV-1
  GI50: 73.1 µM (inactive)
K562
  GI50: > 100 µM (inactive)
MDA-MB-435
  GI50: > 100 µM (inactive)
DU-145
  GI50: > 100 µM (inactive)
BT-549
  GI50: > 100 µM (inactive)
SK-OV-3
  GI50: > 100 µM (inactive)
LOX IMVI
  GI50: > 100 µM (inactive)
SK-MEL-2
  GI50: > 100 µM (inactive)
SN12C
  GI50: > 100 µM (inactive)
M14
  GI50: > 100 µM (inactive)
A549
  GI50: > 100 µM (inactive)
PC-3
  GI50: > 100 µM (inactive)
HL-60
  GI50: > 100 µM (inactive)
SF-295
  GI50: 31.3 µM (inactive)
EKVX
  GI50: > 100 µM (inactive)
NCI-H23
  GI50: > 100 µM (inactive)
HT-29
  GI50: > 100 µM (inactive)
SF-268
  GI50: > 100 µM (inactive)
NCI-H522
  GI50: > 100 µM (inactive)
786-0
  GI50: > 100 µM (inactive)
MCF7
  GI50: > 100 µM (inactive)
U-251
  GI50: > 100 µM (inactive)
UO-31
  GI50: 39 µM (inactive)
OVCAR-4
  GI50: > 100 µM (inactive)
TK-10
  GI50: > 100 µM (inactive)
UACC-62
  GI50: > 100 µM (inactive)
NCI-H226
  GI50: > 100 µM (inactive)
HOP-92
  GI50: 52.1 µM (inactive)
OVCAR-5
  GI50: > 100 µM (inactive)
ACHN
  GI50: 81.8 µM (inactive)
CAKI-1
  GI50: > 100 µM (inactive)
HOP-62
  GI50: 63.5 µM (inactive)
OVCAR-3
  GI50: > 100 µM (inactive)
SK-MEL-28
  GI50: > 100 µM (inactive)
SK-MEL-5
  GI50: > 100 µM (inactive)
SNB-75
  GI50: 27.2 µM (inactive)
HCT-15
  GI50: > 100 µM
SNB-19
  GI50: > 100 µM (inactive)
RPMI-8226
  GI50: > 100 µM (inactive)
MDA-N
  GI50: > 100 µM (inactive)
